What all share (experiment): DTP human tumour cell line panel, 48 h
Test [1] concerns OVCAR-4 ovarian.
Test [2] relates to MDA-N.
The test system of test [3] is CAKI-1 renal.
In test [4] the test system is NCI-H23 lung.
Test [5] relates to MDA-MB-231 breast.
Test [6] deals with SNB-75 CNS.
The subject of test [7] is NCI-H522 lung.
In test [8] the test system is OVCAR-8 ovarian.

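Interpolation was linear, between the two tested concentrations surrounding the appropriate level; five concentrations were tested over 48 hours in 96-well plates. TGI marks complete inhibition of growth.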

By TGI is commonly meant the concentration at which net growth stops. Regarding `O=CC1OC(=O)c2cc(O)c(O)c(O)c2-c2c(cc(O)c(O)c2O)C(=O)OC1C1OC(=O)c2cc(O)c(O)c(O)c2-c2c(O)c(O)c3oc(=O)c4c(c(O)c(O)c5oc(=O)c2c3c54)-c2c(cc(O)c(O)c2O)C(=O)OCC1O` (stereo not given), the total growth inhibition concentration (TGI) is 38.2 µM in test [1]; 51.9 µM in test [2]; 25.9 µM in test [3]; over 100 µM in test [4]; 37 µM in test [5]; 93.8 µM in test [6]. Also, the concentration for total growth inhibition (TGI) was determined as 85.7 µM in test [7] and 41.2 µM in test [8].

For `O=C(OCC(OC(=O)c1ccccc1)C1CC(C2(O)CCCCC2)C(=O)O1)c1ccccc1` (stereo not given), the TGI in test [1] is over 25 µM; in test [2], over 25 µM; in test [3] it was over 25 µM; in test [4], 7.85 µM; in test [5] it was over 25 µM; in test [6], over 25 µM. Besides, the TGI in test [7] and in test [8] was over 25 µM throughout.

On to `O=c1c2cc([N+](=O)[O-])ccc2n2n1CCCCC2`, for which the TGI in test [1], in test [2], in test [3], in test [4], in test [5] and in test [6] was over 100 µM throughout. Moreover, the TGI in test [7] and in test [8] was over 100 µM throughout.

Take `CN(Cc1cnc2nc(N)nc(N)c2n1)c1ccc(C(=O)NCCCC(=O)O)cc1`: the TGI in test [1], in test [2], in test [3], in test [4], in test [5] and in test [6] was over 100 µM throughout. Besides, the TGI in test [7] and in test [8] was over 100 µM each time.

Consider `CON[N+]([O-])=NC(C)C`, for which the TGI in test [1], in test [2], in test [3], in test [4], in test [5] and in test [6] was over 100 µM throughout. The concentration for total growth inhibition (TGI) in test [7] and in test [8] was over 100 µM throughout.

For the molecule `Cc1cccc(N=N/C(=N\NC(=O)c2cc(Cl)ccc2O)c2ccc(N(CCC#N)CCC#N)cc2C)c1`, the TGI in test [1] was 76.3 µM; in test [2], over 100 µM; in test [3], over 100 µM; in test [4] it was over 100 µM; in test [5] it was 58.6 µM; in test [6], over 100 µM. Besides, the TGI was 72.6 µM in test [7] and over 100 µM in test [8].

Take `c1ccc2c(c1)-c1ccccc1C2NC1=NCCO1`: the TGI in test [1] was over 100 µM; in test [2], 24 µM; in test [3], 80.9 µM; in test [4], over 100 µM; in test [5] it was 56 µM; in test [6], 49.5 µM. For the same molecule, the values for the concentration for total growth inhibition (TGI) in test [7] and in test [8] were 51.4 µM and 57.2 µM, respectively.

In the case of `CC1(C)N([O-])[N+](=O)C1(C)O` (stereo not given), the TGI in test [1], in test [2], in test [3], in test [4], in test [5] and in test [6] was over 100 µM throughout. The TGI in test [7] and in test [8] was over 100 µM throughout.

As for `COC(=O)[C@H](Cc1ccccc1)NC(=O)N(CCNC(=O)OC(C)(C)C)c1ccccc1`, the TGI in test [1], in test [2], in test [3], in test [4], in test [5] and in test [6] was over 100 µM throughout. Also, the TGI in test [7] and in test [8] was over 100 µM each time.

Turning to `OC(Cc1cc(CC(O)(C(F)(F)F)C(F)(F)F)nc(CC(O)(C(F)(F)F)C(F)(F)F)c1)(C(F)(F)F)C(F)(F)F`, the TGI in test [1] is over 10 µM; in test [2], 4.09 µM; in test [3], 2.31 µM; in test [4], 2.65 µM; in test [5], 3.68 µM; in test [6], 7.81 µM. Moreover, the results for the TGI in test [7] and in test [8] were 8.98 µM and over 10 µM, respectively.

As for `COc1ccc(C=O)cc1OS(=O)(=O)C(F)(F)C(F)(F)C(F)(F)C(F)(F)F`, the TGI is over 100 µM in test [1]; 44.7 µM in test [2]; over 100 µM in test [3]; over 100 µM in test [4]; over 70.3 µM in test [5]; over 90.4 µM in test [6]. Further, the results for the TGI in test [7] and in test [8] were over 60.1 µM and over 100 µM, respectively.

Regarding `CN(C)CC(C)(C)CN1c2ccccc2Sc2ccccc21`, the TGI in test [1] amounted to 26.5 µM; in test [2], 28.2 µM; in test [3], 24.7 µM; in test [4], 30.2 µM; in test [5], 24.3 µM; in test [6] it was 18 µM. Moreover, the TGI in test [7] is 25.9 µM; in test [8] it was 28.6 µM.

As to `C=C(C)[C@H]1CC(=O)[C@@]2(C)C[C@H]3O[C@]3(C)CC/C=C(\C)CC[C@H]12`, the total growth inhibition concentration (TGI) was over 100 µM in test [1]; over 100 µM in test [2]; 73 µM in test [3]; over 100 µM in test [4]; over 100 µM in test [5]; over 100 µM in test [6]. In addition, the TGI in test [7] and in test [8] was over 100 µM throughout.

On to `Cn1c(=O)c2c(=O)cc(N)[nH]c2n(C)c1=O`, for which the TGI in test [1] is over 100 µM; in test [2], over 100 µM; in test [3] it was 76.8 µM; in test [4], over 100 µM; in test [5], over 100 µM; in test [6], over 100 µM. Also, the TGI in test [7] and in test [8] was over 100 µM each time.

`O=C(CC(C(=O)c1cccs1)c1ccc2c(c1)OCO2)c1ccccc1` (stereo not given): the TGI in test [1], in test [2], in test [3], in test [4], in test [5] and in test [6] was over 100 µM in each case. In addition, the TGI in test [7] and in test [8] was over 100 µM throughout.

(Values after PubChem BioAssay (NCI).)
